Laboratory results taken from patent publication US20240033234A1, “THERAPEUTIC COMPOUNDS, FORMULATIONS, AND USE THEREOF” (Tvardi Therapeutics, Inc., priority 2022, published 2024).
“And” between values parts separate entries of the source, which are not always exact repeats. Identical values can stand only once.

Test: Accelerated and long term stability study of TTI-101 (Batch A, Batch B): HPLC assay, purity, impurities and water content after storage at 5° C., 25° C./60% RH, 30° C./65% RH or 40° C./75% RH
Type: physicochemical
Details: for Impurities RRT 0.99: RRT of compound of formula (IV); for Impurities RRT 1.06: RRT of Compound 4
Procedure: Exemplary HPLC conditions: diluent was 0.1% trifluoroacetic acid (TFA) in acetonitrile, Mobile Phase A was 0.05% TFA in water, and Mobile Phase B was 0.05% TFA in acetonitrile, column (Agilent, Eclipse XDB-C18, 3.0×100 mm, particle size 1.8 μm), flow (0.425 mL/min), and detector (280 nm diode array).
Batch A was prepared analogously using Method 3 as described in Example 1. Batch B was prepared according to Method 5 as described in Example 1.
Samples of TTI-101 were stored at 5° C., 25° C./60% RH, 30° C./65% RH, or 40° C./75% RH. TTI-101 was stored in an LDPE bag enclosed with a Nylon cable tie and then transferred to another LDPE bag and enclosed with a Nylon cable tie. The enclosure was put into an HDPE bottle and closed with a polyethylene-lined polypropylene cap. The samples were stored under the above-identified conditions.
The samples were analyzed using HPLC with the exemplary conditions identified above. Relative retention time (RRT) for Compound 5 was about 0.83, Compound 4 was about 1.05-1.06, Compound 6 was about 1.15-1.17, and compound of formula (IV) was about 0.99.
• NA not applicable • NQ ≥0.02% and <0.05% • Avg average • Cmpd compound • — no peak • M month • RRT relative retention time

[1] = 5° C., 0 M, P1/P2, listed as Batch A
[2] = 5° C., 2 M, P1/P2, listed as Batch A
[3] = 5° C., 3 M, P1/P2, listed as Batch A
[4] = 5° C., 12 M, P1/P2, listed as Batch A
[5] = 25° C./60% RH, 0 M, P1/P2, listed as Batch A
[6] = 25° C./60% RH, 2 M, P1/P2, listed as Batch A

COc1ccc(S(=O)(=O)Nc2cc(-c3c(O)ccc4ccccc34)c(O)c3ccccc23)cc1 [TTI-101]
0.06 area % and 0.07 area %: Impurities RRT 1.06 (Cmpd 4) [3]
99.1% and 99.2%: Assay (%) [4]
0.13 area %: Impurities RRT 1.17 (Cmpd 6) (5° C., 0 M, Avg) | Impurities RRT 1.15 (Cmpd 6) (5° C., 6 M, Avg) | Impurities RRT 1.15 (Cmpd 6) (5° C., 6 M, P1/P2) | Impurities RRT 1.17 (Cmpd 6) (25° C./60% RH, 0 M, Avg)
99.2%: Assay (%) (5° C., 12 M, Avg)
99.7% and 100.7%: Assay (%) [2]
100.2% and 99.3%: Assay (%) (5° C., 24 M, P1/P2, listed as Batch A)
99.9% and 100.0%: Purity (%) [2]
99.6%: Assay (%) (5° C., 9 M, Avg) | Assay (%) (5° C., 9 M, P1/P2) | Purity (%) (5° C., 12 M, Avg) | Purity (%) (5° C., 12 M, P1/P2)
0.10 area %: Impurities RRT 1.15 (Cmpd 6) (5° C., 18 M, Avg) | Impurities RRT 1.15 (Cmpd 6) (5° C., 18 M, P1/P2)
100.6% and 98.3%: Assay (%) (5° C., 6 M, P1/P2, listed as Batch A)
0.39 area %: Impurities RRT 1.16 (Cmpd 6) (5° C., 12 M, Avg) | Impurities RRT 1.16 (Cmpd 6) (5° C., 12 M, P1/P2)
0.4 area %: Impurities Total (5° C., 12 M, Avg) | Impurities Total (5° C., 12 M, P1/P2)
0.22 area %: Impurities RRT 1.16 (Cmpd 6) (5° C., 3 M, Avg) | Impurities RRT 1.16 (Cmpd 6) (5° C., 3 M, P1/P2) | Impurities RRT 1.16 (Cmpd 6) (25° C./60% RH, 3 M, Avg) | Impurities RRT 1.16 (Cmpd 6) (25° C./60% RH, 3 M, P1/P2)
99.9% and 99.8%: Purity (%) [6]
99.7%: Purity (%) (5° C., 3 M, Avg) | Purity (%) (5° C., 3 M, P1/P2) | Assay (%) (5° C., 24 M, Avg) | Purity (%) (25° C./60% RH, 3 M, Avg)
99.1%: Assay (%) (25° C./60% RH, 2 M, Avg)
NQ (≥0.02% and <0.05%): Impurities RRT 1.06 (Cmpd 4) (5° C., 0 M, Avg) | Impurities RRT 1.32 (5° C., 0 M, Avg) | Impurities RRT 0.99 (5° C., 0 M, Avg) | Impurities RRT 1.32 (5° C., 0 M, P1/P2) | Impurities RRT 0.99 (5° C., 2 M, Avg) | Impurities RRT 1.06 (Cmpd 4) (5° C., 12 M, Avg) | Impurities RRT 1.06 (Cmpd 4) (5° C., 12 M, P1/P2) | Impurities RRT 1.06 (5° C., 18 M, P1/P2) | Impurities RRT 1.06 (5° C., 24 M, P1/P2) | Impurities RRT 1.06 (Cmpd 4) (25° C./60% RH, 0 M, Avg) | Impurities RRT 1.32 (25° C./60% RH, 0 M, Avg) | Impurities RRT 0.99 (25° C./60% RH, 0 M, Avg) | Impurities RRT 1.32 (25° C./60% RH, 0 M, P1/P2) | Impurities RRT 0.92 (25° C./60% RH, 2 M, Avg) | Impurities RRT 1.29 (25° C./60% RH, 2 M, Avg)
<0.04% and 0.04%: Water Content (%) [4]
0.07 area %: Impurities RRT 1.06 (Cmpd 4) (5° C., 3 M, Avg) | Impurities RRT 1.06 (Cmpd 4) (25° C./60% RH, 3 M, Avg) | Impurities RRT 1.06 (Cmpd 4) (25° C./60% RH, 3 M, P1/P2)
0.13 area % and 0.12 area %: Impurities RRT 1.17 (Cmpd 6) [1] | Impurities RRT 1.17 (Cmpd 6) [5]
99.4%: Assay (%) (5° C., 6 M, Avg)
0.05 area %: Impurities RRT 1.16 (Cmpd 6) (25° C./60% RH, 2 M, Avg)
0.05 area % and 0.1 area %: Impurities Total [6]
0.11 area %: Impurities RRT 1.16 (Cmpd 6) (5° C., 24 M, Avg) | Impurities RRT 1.16 (Cmpd 6) (5° C., 24 M, P1/P2)
99.8%: Assay (%) (5° C., 0 M, Avg) | Purity (%) (5° C., 0 M, Avg) | Purity (%) (5° C., 0 M, P1/P2) | Assay (%) (25° C./60% RH, 0 M, Avg) | Purity (%) (25° C./60% RH, 0 M, Avg) | Purity (%) (25° C./60% RH, 0 M, P1/P2)
98.5%: Assay (%) (5° C., 18 M, Avg)
0.12 area %: Impurities RRT 1.16 (Cmpd 6) (5° C., 9 M, Avg)
0.3 area %: Impurities Total (5° C., 3 M, Avg) | Impurities Total (5° C., 3 M, P1/P2) | Impurities Total (25° C./60% RH, 3 M, Avg) | Impurities Total (25° C./60% RH, 3 M, P1/P2)
99.5%: Assay (%) (25° C./60% RH, 3 M, Avg)
0.08 area %: Impurities RRT 1.16 (Cmpd 6) (5° C., 2 M, Avg) | Impurities RRT 0.71 (25° C./60% RH, 2 M, Avg)
99.9% and 99.7%: Assay (%) [1] | Assay (%) [5]
0.1 area %: Impurities Total (5° C., 0 M, Avg) | Impurities Total (5° C., 0 M, P1/P2) | Impurities Total (5° C., 2 M, Avg) | Impurities Total (5° C., 6 M, Avg) | Impurities Total (5° C., 6 M, P1/P2) | Impurities Total (5° C., 9 M, Avg) | Impurities Total (5° C., 9 M, P1/P2) | Impurities Total (5° C., 18 M, Avg) | Impurities Total (5° C., 18 M, P1/P2) | Impurities Total (5° C., 24 M, Avg) | Impurities Total (5° C., 24 M, P1/P2) | Impurities Total (25° C./60% RH, 0 M, Avg) | Impurities Total (25° C./60% RH, 0 M, P1/P2) | Impurities Total (25° C./60% RH, 2 M, Avg)
100.2%: Assay (%) (5° C., 2 M, Avg)
100.2% and 99.5%: Assay (%) [3]
98.9% and 99.3%: Assay (%) [6]
<0.04%: Water Content (%) (5° C., 0 M, Avg) | Water Content (%) (5° C., 0 M, P1/P2) | Water Content (%) (5° C., 2 M, Avg) | Water Content (%) (5° C., 2 M, P1/P2) | Water Content (%) (5° C., 3 M, Avg) | Water Content (%) (5° C., 3 M, P1/P2) | Water Content (%) (5° C., 6 M, Avg) | Water Content (%) (5° C., 6 M, P1/P2) | Water Content (%) (5° C., 9 M, Avg) | Water Content (%) (5° C., 9 M, P1/P2) | Water Content (%) (5° C., 18 M, Avg) | Water Content (%) (5° C., 18 M, P1/P2) | Water Content (%) (5° C., 24 M, Avg) | Water Content (%) (5° C., 24 M, P1/P2) | Water Content (%) (25° C./60% RH, 0 M, Avg) | Water Content (%) (25° C./60% RH, 0 M, P1/P2) | Water Content (%) (25° C./60% RH, 2 M, Avg) | Water Content (%) (25° C./60% RH, 2 M, P1/P2) | Water Content (%) (25° C./60% RH, 3 M, Avg)
0.04%: Water Content (%) (5° C., 12 M, Avg)
97.9% and 99.2%: Assay (%) (5° C., 18 M, P1/P2, listed as Batch A)
99.9%: Purity (%) (5° C., 2 M, Avg) | Assay (%) (5° C., 3 M, Avg) | Purity (%) (5° C., 6 M, Avg) | Purity (%) (5° C., 6 M, P1/P2) | Purity (%) (5° C., 9 M, Avg) | Purity (%) (5° C., 9 M, P1/P2) | Purity (%) (5° C., 18 M, Avg) | Purity (%) (5° C., 18 M, P1/P2) | Purity (%) (5° C., 24 M, Avg) | Purity (%) (5° C., 24 M, P1/P2) | Purity (%) (25° C./60% RH, 2 M, Avg)
0.12 area % and 0.11 area %: Impurities RRT 1.16 (Cmpd 6) (5° C., 9 M, P1/P2, listed as Batch A)
